Molecules are shown by their SMILES. ≈ marks a conversion by molar mass, not a printed value.

The source of these data is ChEMBL document CHEMBL3046511, “Controlling Efficacy of Strobilurin Derivatives against Wheat Powdery Mildew and Eyespot” (J Pestic Sci, 2002).

For assay [1], the system named is Blumeria graminis f. sp. tritici. Put plainly: Fungicidal activity against Blumeria graminis f. sp. tritici in 2 weeks old wheat seedlings assessed as control of powdery mildew at 31.3 ppm pretreated 24 hr before by foliar application at 22 +/- 2 degC under greenhouse and leaf area measured after 10 days of inoculation. It is filed as functional.
For assay [2] the test system is unchanged. Put plainly: Fungicidal activity against Blumeria graminis f. sp. tritici in 2 weeks old wheat seedlings assessed as control of powdery mildew at 0.5 ppm pretreated 24 hr before by foliar application at 22 +/- 2 degC under greenhouse and leaf area measured after 10 days of inoculation. It is filed as functional.
For assay [3] the test system is unchanged. Put plainly: Fungicidal activity against Blumeria graminis f. sp. tritici in 2 weeks old wheat seedlings assessed as control of powdery mildew at 0.06 ppm pretreated 24 hr before by foliar application at 22 +/- 2 degC under greenhouse and leaf area measured after 10 days of inoculation. It is filed as functional.
Assay [4] has the same test system. Put plainly: Fungicidal activity against Blumeria graminis f. sp. tritici in 2 weeks old wheat seedlings assessed as control of powdery mildew at 0.125 ppm pretreated 24 hr before by foliar application at 22 +/- 2 degC under greenhouse and leaf area measured after 10 days of inoculation. It is filed as functional.
Assay [5] has the same test system. Put plainly: Fungicidal activity against Blumeria graminis f. sp. tritici in 2 weeks old wheat seedlings assessed as control of powdery mildew at 2 ppm pretreated 24 hr before by foliar application at 22 +/- 2 degC under greenhouse and leaf area measured after 10 days of inoculation. It is filed as functional.
Assay [6] shares this test system. In words: Fungicidal activity against Blumeria graminis f. sp. tritici in 2 weeks old wheat seedlings assessed as control of powdery mildew at 7.8 ppm pretreated 24 hr before by foliar application at 22 +/- 2 degC under greenhouse and leaf area measured after 10 days of inoculation. It is filed as functional.
Assay [7] relates to Oculimacula yallundae. In words: Fungicidal activity against W-type Oculimacula yallundae assessed as inhibition of mycelial growth at 20 degC for 14 days in presence of 50 ppm flovone. It is filed as functional, organism-based. The conditions noted are these: for MIC: Oculimacula yallundae, 336 h.
Assay [8] relates to Oculimacula yallundae. Put plainly: Fungicidal activity against W-type Oculimacula yallundae assessed as inhibition of mycelial growth at 20 degC for 14 days. It is filed as functional, organism-based. The conditions noted are these: for MIC: Oculimacula yallundae, 336 h.
In assay [9] the test system is Blumeria graminis f. sp. tritici. Put plainly: Fungicidal activity against Blumeria graminis f. sp. tritici in 2 weeks old wheat seedlings assessed as control of powdery mildew pretreated 24 hr before by foliar application at 22 +/- 2 degC under greenhouse and leaf area measured after 10 days of inoculation. It is filed as functional, organism-based.
The test system is the same in assay [10]. Put plainly: Fungicidal activity against Blumeria graminis f. sp. tritici in 2 weeks old wheat seedlings assessed as control of powdery mildew at 125 ppm pretreated 24 hr before by foliar application at 22 +/- 2 degC under greenhouse and leaf area measured after 10 days of inoculation. It is filed as functional.
The test system of assay [11] is Podosphaera fuliginea. In words: Fungicidal activity against Podosphaera fuliginea in cucumber cotyledon assessed as control of powdery mildew measured as width inhibition at 7.8 ppm treated 24 hr inoculation at 22 +/- 2 degC measured after 10 days by vapour-phase activity test. It is filed as functional.
Assay [12] concerns Podosphaera fuliginea. Put plainly: Fungicidal activity against Podosphaera fuliginea in cucumber cotyledon assessed as control of powdery mildew measured as length inhibition at 2 ppm treated 24 hr inoculation at 22 +/- 2 degC measured after 10 days by vapour-phase activity test. It is filed as functional.
Assay [13] deals with Podosphaera fuliginea. Put plainly: Fungicidal activity against Podosphaera fuliginea in cucumber cotyledon assessed as control of powdery mildew measured as width inhibition at 2 ppm treated 24 hr inoculation at 22 +/- 2 degC measured after 10 days by vapour-phase activity test. It is filed as functional.
Assay [14] deals with Podosphaera fuliginea. Put plainly: Fungicidal activity against Podosphaera fuliginea in cucumber cotyledon assessed as control of powdery mildew measured as length inhibition at 7.8 ppm treated 24 hr inoculation at 22 +/- 2 degC measured after 10 days by vapour-phase activity test. It is filed as functional.

By MIC is commonly meant the least concentration at which growth counts as inhibited. For the compound `CNC(=O)/C(=N/OC)c1ccccc1Oc1cc(C)ccc1C`, the Activity in assay [1] was determined as 100%; in [2] it was 94%; in [3], 22%; in [4], 79%; in [5], 98%; in [6], 100%. The EC50 in the assay with Oculimacula yallundae [7] came out at 0.03 ppm; with Oculimacula yallundae [8], 0.13 ppm; in assay [9], 0.07 ppm. The MIC with Oculimacula yallundae [7] was 1 µg/mL; with Oculimacula yallundae [8], less than 125 µg/mL.
With `CCCN(CCOc1c(Cl)cc(Cl)cc1Cl)C(=O)n1ccnc1` [PROCHLORAZ], the Activity is on record as 70% in assay [1]; 23% in [2]; 0% in assay [4]; 57% in assay [5]; 70% in assay [6]; 92% in [10]. Further, the EC50 with Oculimacula yallundae [8] is given as 0.06 ppm; in assay [9], 3.39 ppm. The MIC with Oculimacula yallundae [8] turned out to be 5 µg/mL (≈ 13.3 µM).
As for `CO/N=C(/C(=O)OC)c1ccccc1COc1ccccc1C` [KRESOXIM-METHYL], the Activity in [1] came to 92%; in assay [2], 39%; in assay [4] it was 14%; in assay [5] it was 68%; in assay [6], 86%; in assay [10] it was 100%. Further, the INH in the assay on Podosphaera fuliginea [11] was less than 20 mm; with Podosphaera fuliginea [12], 12.7 mm; with Podosphaera fuliginea [13], 13.5 mm; with Podosphaera fuliginea [14] it was less than 20 mm. The EC50 with Oculimacula yallundae [7] was found to be 0.11 ppm; in the assay with Oculimacula yallundae [8] it was 0.79 ppm; in assay [9], 0.95 ppm. The MIC with Oculimacula yallundae [7] was 5 µg/mL; in the assay on Oculimacula yallundae [8] it was less than 125 µg/mL.
For `COC(=O)NC(=S)Nc1ccccc1NC(=S)NC(=O)OC` [THIOPHANATE METHYL], in the assay on Oculimacula yallundae [8], the EC50 was found to be 1.18 ppm and the MIC stood at 25 µg/mL (≈ 73 µM).
In the case of `OC(c1ccc(Cl)cc1)(c1cncnc1)c1ccccc1Cl` (stereo unspecified) [FENARIMOL], the Activity came to 98% in assay [1]; 50% in assay [2]; 0% in assay [4]; 84% in assay [5]; 94% in assay [6]; 98% in assay [10]. Moreover, the EC50 came to 1.02 ppm in the assay on Oculimacula yallundae [8] and 0.58 ppm in [9]. Further, the MIC with Oculimacula yallundae [8] came out at 25 µg/mL (≈ 75.5 µM).
Take `CO/C=C(/C(=O)OC)c1ccccc1Oc1cc(Oc2ccccc2C#N)ncn1` [AZOXYSTROBIN]: the Activity in [1] was 87%; in assay [2] it was 35%; in assay [4] it was 5%; in [5] it was 64%; in assay [6], 85%; in assay [10], 95%. The EC50 in the assay on Oculimacula yallundae [7] is 0.41 ppm; with Oculimacula yallundae [8] it was 3.2 ppm; in assay [9], 1.39 ppm. Also, the MIC in the assay on Oculimacula yallundae [7] is 25 µg/mL; in the assay with Oculimacula yallundae [8], less than 125 µg/mL.
Turning to `CNC(=O)/C(=N/OC)c1ccccc1Oc1ncc(Cl)cc1C(F)(F)F`, the Activity came out at 100% in [1]; 89% in [2]; 50% in [3]; 60% in assay [4]; 96% in [5]; 100% in assay [6]. For the same compound, the results for the INH in the assay with Podosphaera fuliginea [11] and in the assay with Podosphaera fuliginea [14] were 10.7 mm and 8.9 mm, respectively. Further, the EC50 came to 0.08 ppm in the assay with Oculimacula yallundae [7], 0.33 ppm in the assay with Oculimacula yallundae [8] and 0.05 ppm in assay [9]. Besides, the MIC is 1 µg/mL in the assay on Oculimacula yallundae [7] and less than 125 µg/mL with Oculimacula yallundae [8].
For `CC(C)(C)C(=O)C(Oc1ccc(Cl)cc1)n1cncn1` (stereo unspecified) [TRIADIMEFON], the Activity in [1] was determined as 94%; in [2] it was 30%; in assay [4], 0%; in assay [5], 57%; in [6] it was 82%; in assay [10], 99%. In addition, the INH in the assay with Podosphaera fuliginea [11] and with Podosphaera fuliginea [14] was less than 20 mm each time. The EC50 in the assay on Oculimacula yallundae [8] is on record as 7.81 ppm; in [9], 1.6 ppm. The minimal inhibitory concentration (MIC) in the assay with Oculimacula yallundae [8] is less than 125 µg/mL.
